{"source": "patent US20120088803A1", "about": "“CONTROL AGENT FOR SOFT ROT AND CONTROL METHOD FOR THE SAME” (Ishihara Sangyo Kaisha, Ltd, priority 2009, published 2012)", "tested_on": "Erwinia carotovora (potato Erwinia carotovora)", "assay": "Test for growth inhibition of potato Erwinia carotovora (PSA medium plate)", "type": "cell-based", "settings": "for Growing state of Erwinia carotovora (formed colonies): PSA medium, 25 degrees C., 4 days, two plates per cell", "experimental": "Reference test example: Test for growth inhibition of potato Erwinia carotovora\nA test for growth inhibition of Erwinia carotovora in the case of direct application of the control agent to Erwinia carotovora was performed. To previously melted PSA medium (55 degrees C.), a predetermined amount of a pesticide 3-chloro-N-(3-chloro-5-trifluoromethyl-2-pyridyl)-alpha,alpha,alpha-trifluoro-2,6-dinit ro-p-toluidine (fluazinam, Frowncide SC (trade name), manufactured by Ishihara Sangyo Kaisha, Ltd.), ethaboxam wettable powder (Ethaboxam, Gardian (trade name), manufactured by LG Chemical), or streptomycin (Mycin wettable powder (trade name), manufactured by Hokko Chemical Industry Co., Ltd.) and a suspension of Erwinia carotovora (potato Erwinia carotovora) were added and the resulting mixture was stirred well, and then, poured in a plate. Then, the plate was cultured at 25 degrees C. for 4 days, and the growing state of Erwinia carotovora was examined. Thereafter, the formed colonies were examined according to the following three criteria. • +: Equal to the colonies of the untreated group • Plus or minus: Apparently less than the colonies of the untreated group • −: Almost no colonies"}
{"smiles": "CCNc1nc(CC)c(C(=O)NC(C#N)c2cccs2)s1", "note": "(stereo not shown) [Ethaboxam WP, ethaboxam]", "values": [{"measurement": "Growing state of Erwinia carotovora (formed colonies)", "setting": "Active ingredient concentration 100 ppm", "value": "+, +"}, {"measurement": "Growing state of Erwinia carotovora (formed colonies)", "setting": "Active ingredient concentration 500 ppm", "value": "+, +"}, {"measurement": "Growing state of Erwinia carotovora (formed colonies)", "setting": "Active ingredient concentration 1000 ppm", "value": "+, +"}, {"measurement": "Growth inhibition of Erwinia carotovora (in words)", "setting": "active ingredient concentration of 1000 ppm, direct application", "value": "did not inhibit the growth"}]}
